{
  "source": "patent US7879880B2",
  "about": "“Substituted aniline derivatives useful as histamine H3 antagonists” (Schering Corporation, priority 2005, dated 2011)",
  "key": {"[1]": {"biological_target": "T1, guinea pig brain H3 receptor (Cavia porcellus, UniProt Q9JI35)", "T1 construct": "The brain tissue was homogenized with a solution of 50 mM Tris, pH 7.5; from tissue; host or cells: guinea pig brain membranes", "T1 sequence (Q9JI35 whole entry)": "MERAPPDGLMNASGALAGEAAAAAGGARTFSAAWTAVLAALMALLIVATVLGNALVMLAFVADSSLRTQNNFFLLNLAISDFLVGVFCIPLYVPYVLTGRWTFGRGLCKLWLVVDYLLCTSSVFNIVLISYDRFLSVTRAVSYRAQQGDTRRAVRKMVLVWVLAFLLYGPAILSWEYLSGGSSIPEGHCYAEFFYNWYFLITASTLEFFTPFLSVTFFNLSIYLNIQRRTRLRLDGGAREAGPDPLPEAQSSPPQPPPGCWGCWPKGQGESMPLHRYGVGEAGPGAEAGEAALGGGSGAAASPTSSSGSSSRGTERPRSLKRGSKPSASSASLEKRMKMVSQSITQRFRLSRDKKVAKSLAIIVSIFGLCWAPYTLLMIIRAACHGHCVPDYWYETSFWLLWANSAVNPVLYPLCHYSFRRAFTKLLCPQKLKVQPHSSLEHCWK", "assay": "H3-receptor binding assay, guinea pig brain membranes", "settings": "[3H]R-α-methyl histamine or [3H]Nα-methyl histamine", "experimental": "(§1) The source of the H3 receptors in this experiment was guinea pig brain. Alternatively, the source of H3 receptors was recombinant human receptor, expressed in HEK-293 (human embryonic kidney) cells.\nThe animals weighed 400-600 g. The brain tissue was homogenized with a solution of 50 mM Tris, pH 7.5. The final concentration of tissue in the homogenization buffer was 10% w/v. The homogenates were centrifuged at 1,000×g for 10 min. in order to remove clumps of tissue and debris. The resulting supernatants were then centrifuged at 50,000×g for 20 min. in order to sediment the membranes, which were next washed three times in homogenization buffer (50,000×g for 20 min. each). The membranes were frozen and stored at −70° C. until needed.\nAll compounds to be tested were dissolved in DMSO and then diluted into the binding buffer (50 mM Tris, pH 7.5) such that the final concentration was 2 μg/ml with 0.1% DMSO. Membranes were then added (400 μg of protein, 5 μg in the case of recombinant human receptor) to the reaction tubes. The reaction was started by the addition of 3 nM [^3H]R-α-methyl histamine (8.8 Ci/mmol) or 3 nM [^3H]N^α-methyl histamine (80 Ci/mmol) and continued under incubation at 30° C. for 30 min. Bound ligand was separated from unbound ligand by filtration, and the amount of radioactive ligand bound to the membranes was quantitated by liquid scintillation spectrometry. […]"}, "[2]": {"biological_target": "T2, recombinant human H3 receptor (Homo sapiens, UniProt Q9Y5N1)", "T2 construct": "expressed in transfected cells; host or cells: HEK-293 (human embryonic kidney) cells", "T2 sequence (Q9Y5N1 whole entry)": "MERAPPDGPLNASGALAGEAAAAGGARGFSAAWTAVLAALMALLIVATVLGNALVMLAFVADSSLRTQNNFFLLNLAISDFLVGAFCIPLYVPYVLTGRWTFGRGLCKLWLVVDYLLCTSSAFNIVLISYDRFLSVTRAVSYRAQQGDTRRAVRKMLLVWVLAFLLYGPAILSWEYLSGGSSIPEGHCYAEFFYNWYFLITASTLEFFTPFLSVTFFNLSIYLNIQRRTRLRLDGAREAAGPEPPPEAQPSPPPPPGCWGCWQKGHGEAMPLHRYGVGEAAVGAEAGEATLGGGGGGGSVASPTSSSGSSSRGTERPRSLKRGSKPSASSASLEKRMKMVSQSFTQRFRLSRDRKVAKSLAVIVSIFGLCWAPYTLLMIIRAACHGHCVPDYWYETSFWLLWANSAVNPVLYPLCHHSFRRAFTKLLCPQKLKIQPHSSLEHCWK", "assay": "H3-receptor binding assay, recombinant human receptor expressed in HEK-293 cells", "settings": "[3H]R-α-methyl histamine or [3H]Nα-methyl histamine", "experimental": "as §1\nAll compounds to be tested were dissolved in DMSO and then diluted into the binding buffer (50 mM Tris, pH 7.5) such that the final concentration was 2 μg/ml with 0.1% DMSO. Membranes were then added (400 μg of protein, 5 μg in the case of recombinant human receptor) to the reaction tubes. The reaction was started by the addition of 3 nM [^3H]R-α-methyl histamine (8.8 Ci/mmol) or 3 nM [^3H]N^α-methyl histamine (80 Ci/mmol) and continued under incubation at 30° C. for 30 min. Bound ligand was separated from unbound ligand by filtration, and the amount of radioactive ligand bound to the membranes was quantitated by liquid scintillation spectrometry. All incubations were performed in duplicate and the standard error was always less than 10%. Compounds that inhibited more than 70% of the specific binding of radioactive ligand to the receptor were serially diluted to determine a Ki (nM)."}, "[3]": {"assay": "Effects on diet-induced obesity in mice (weight gain and food intake)", "type": "in vivo", "settings": "mice on high-fat diet, 10 mg/kg by gavage once daily for four days, vs vehicle control", "experimental": "Lean mice (male, approx. 5 weeks of age, purchased from The Jackson Laboratory, Bar Harbor, Me.) were maintained in individual cages at 22° C. on a 12:12 hr light/dark cycle. The “treated” mice (N=12) were administered a Thiazole Derivative (10 mg/kg) by gavage once daily for four consecutive days. Control mice (N=12) were administered vehicle only, once daily for four days. Both control and treated mice were fed a high-fat diet from days 0 to 4 and body weight and food intake were monitored daily. The percent inhibition for weight gain and food intake was calculated by comparing the increase in weight gain and food intake in the treated mice to the increase in weight gain and food intake in the control mice.\nCompound numbers correspond to the compound numbering set forth in the specification."}},
  "note": "pKi: −log10 of the molar value.",
  "data": [
    {"smiles": "Cc1cccc(C)c1NC(=O)N1CCN(C(=O)c2ccc(Nc3ccncc3)cc2)CC1", "note": "[Compound 54A]", "values": [
      {"measurement": "pKi", "setting": "[1]", "value": 8.70}
    ]},
    {"smiles": "O=C(c1ccc(Nc2ccncc2)cc1)N1CCC(n2c(-c3ccccn3)nc3cccnc32)CC1", "note": "[Compound 59A]", "values": [
      {"measurement": "pKi", "setting": "[2]", "value": 8.52},
      {"measurement": "Food intake Inhibition (%)", "setting": "[3]", "value": 1.1, "unit": "%"},
      {"measurement": "Weight Gain Inhibition (%)", "setting": "[3]", "value": 21.0, "unit": "%"}
    ]},
    {"smiles": "Nc1cc(Nc2ccc(C(=O)N3CCC(n4c(-c5ccccn5)nc5cccnc54)CC3)cc2)ccn1", "note": "[Compound 160A]", "values": [
      {"measurement": "Food intake Inhibition (%)", "setting": "[3]", "value": 18.3, "unit": "%"},
      {"measurement": "Weight Gain Inhibition (%)", "setting": "[3]", "value": 33.0, "unit": "%"}
    ]}
  ]
}
